Reference: US6355799B1, “Substituted benzene compounds, process for their preparation, and herbicidal and defoliant compositions containing them” (ISK Americas Incorporated, priority 1997, dated 2002)

Assays:
Type in all cases: in vivo
[1] = system: field corn (Zea mays L., var. Dekalb 535, CORN); assay: Post-emerge test, crop safety; conditions: post-emerge, 14 days after application, rating scale 0-100
How it was run: (§1)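 Each test used a mechanized track sprayer delivering 187 l/ha of acetone solution at 15–1000 g ai/ha. Post-emerge foliage at 2–3 leaves was treated with added 0.25% v/v non-ionic surfactant and bottom-watered only. Injury was assessed on day 14, where 100 means total kill.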

[2] = system: upland rice (Oryza sp., var. Tebonnet, RICE); assay: Post-emerge test, crop safety; conditions: post-emerge, 14 days after application, rating scale 0-100
How it was run: as §1

[3] = system: large crabgrass (Digitaria sanguinalis, DIGSA); assay: Post-emerge test, greenhouse herbicide activity screening; conditions: post-emerge, 14 days after application, rating scale 0-100
How it was run: (§2)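 Fourteen days after spraying, crop and weed injury was graded visually from 0, no effect, to 100, every plant dead. Test substances were dissolved in acetone and applied at 15–1000 g ai/ha with a flat-fan nozzle. Application was either pre-emergence, one day after sowing, or post-emergence at the 2–3 leaf stage.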

[4] = system: ivyleaf morningglory (Ipomoea hederacea, IPOHE); assay: as above; conditions: post-emerge, 14 days after application, rating scale 0-100
How it was run: as §2

[5] = system: velvetleaf (Abutilon theophrasti, ABUTH); assay: as above; conditions: post-emerge, 14 days after application, rating scale 0-100
How it was run: as §2

[6] = system: redroot pigweed (Amaranthus retroflexus, AMARE); assay: as above; conditions: post-emerge, 14 days after application, rating scale 0-100
How it was run: as §2

[7] = system: barnyardgrass (Echinochloa crus-galli, ECHCG); assay: as above; conditions: post-emerge, 14 days after application, rating scale 0-100
How it was run: as §2

[8] = system: green foxtail (Setaria viridis, SETVI); assay: as above; conditions: post-emerge, 14 days after application, rating scale 0-100
How it was run: as §2

[9] = system: sicklepod (Cassia obtusifolia, CASOB); assay: as above; conditions: post-emerge, 14 days after application, rating scale 0-100
How it was run: as §2

[10] = system: large crabgrass (Digitaria sanguinalis, DIGSA); assay: Pre-emerge test, greenhouse herbicide activity screening; conditions: pre-emerge, 14 days after application, scale 0-100
How it was run: (§3)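 Plants grown in 10 cm pots of sandy loam mix received acetone-dissolved compounds through a moving flat-fan nozzle. Doses ranged from 15 to 1000 g ai/ha. Pre-emerge pots were seeded one day earlier, post-emerge pots 8–21 days earlier. Fourteen days on, each pot was graded 0–100 for damage.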

[11] = system: lambsquarters (Chenopodium album, CHEAL); assay: as above; conditions: pre-emerge, 14 days after application, scale 0-100
How it was run: as §3

[12] = system: ivyleaf morningglory (Ipomoea hederacea, IPOHE); assay: as above; conditions: pre-emerge, 14 days after application, scale 0-100
How it was run: as §3

[13] = system: velvetleaf (Abutilon theophrasti, ABUTH); assay: as above; conditions: pre-emerge, 14 days after application, scale 0-100
How it was run: as §3

[14] = system: barnyardgrass (Echinochloa crus-galli, ECHCG); assay: as above; conditions: pre-emerge, 14 days after application, scale 0-100
How it was run: as §3

[15] = system: johnsongrass (Sorghum halepense, SORHA); assay: as above; conditions: pre-emerge, 14 days after application, scale 0-100
How it was run: as §3

[16] = system: green foxtail (Setaria viridis, SETVI); assay: as above; conditions: pre-emerge, 14 days after application, scale 0-100
How it was run: as §3

[17] = system: sicklepod (Cassia obtusifolia, CASOB); assay: as above; conditions: pre-emerge, 14 days after application, scale 0-100
How it was run: as §3

[18] = system: field corn (Zea mays L., var. Dekalb 535, CORN); assay: Pre-emerge test, crop safety; conditions: pre-emerge, 14 days after application, scale 0-100
How it was run: (§4)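 Compounds in acetone were track-sprayed at 15-1000 g ai/ha (187 l/ha) on sandy loam pots: pre-emerge one day after seeding, post-emerge at 2-3 leaf stage with 0.25% v/v non-ionic surfactant. Phytotoxicity was rated 14 days later on a 0 (no damage) to 100 (complete death) scale.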

[19] = system: upland rice (Oryza sp., var. Tebonnet, RICE); assay: Pre-emerge test, crop safety; conditions: pre-emerge, 14 days after application, scale 0-100
How it was run: as §4

[20] = system: redroot pigweed (Amaranthus retroflexus, AMARE); assay: Pre-emerge test, greenhouse herbicide activity screening; conditions: pre-emerge, 14 days after application, scale 0-100
How it was run: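 Sandy loam pots; pre-emerge: sown 1 d pre-spray, surface-watered after, then bottom-watered. Post-emerge: sown 8–21 d before, 2–3 leaf stage, + 0.25% v/v NIS, bottom-watered. Acetone, 187 l/ha track spray, 15–1000 g ai/ha. 0–100 injury score, day 14.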

`COc1c(Cl)cc(Cl)c(-n2c(=O)cc(C(F)(F)F)n(C)c2=O)c1NC(=O)c1ccc2ccccc2c1` [2-144] was tested, and the “CORN phytotoxicity rating (crop damage)” value ([1]; 63 g ai/ha) was 40, the “CORN phytotoxicity rating (crop damage)” value ([1]; 250 g ai/ha) was 20 and the “RICE phytotoxicity rating (crop damage)” value ([2]; 63 g ai/ha) was 15. The “RICE phytotoxicity rating (crop damage)” value ([2]; 250 g ai/ha) was 35, the DIGSA phytotoxicity rating ([3]; 63 g ai/ha) was 0 and the DIGSA phytotoxicity rating ([3]; 250 g ai/ha) was 0. It also gave an IPOHE phytotoxicity rating ([4]; 63 g ai/ha) of 60, an IPOHE phytotoxicity rating ([4]; 250 g ai/ha) of 70 and an ABUTH phytotoxicity rating ([5]; 63 g ai/ha) of 85. The ABUTH phytotoxicity rating ([5]; 250 g ai/ha) was 100, the AMARE phytotoxicity rating ([6]; 63 g ai/ha) was 75 and the AMARE phytotoxicity rating ([6]; 250 g ai/ha) was 90. It also gave an ECHCG phytotoxicity rating ([7]; 63 g ai/ha) of 0, an ECHCG phytotoxicity rating ([7]; 250 g ai/ha) of 10 and an SETVI phytotoxicity rating ([8]; 63 g ai/ha) of 0. The SETVI phytotoxicity rating ([8]; 250 g ai/ha) was 30, the CASOB phytotoxicity rating ([9]; 63 g ai/ha) was 60 and the CASOB phytotoxicity rating ([9]; 250 g ai/ha) was 85. The “phytotoxicity rating DIGSA” value ([10]; 63 g ai/ha) was 20, the “phytotoxicity rating DIGSA” value ([10]; 250 g ai/ha) was 70 and the “phytotoxicity rating CHEAL” value ([11]; 63 g ai/ha) was 100. The “phytotoxicity rating CHEAL” value ([11]; 250 g ai/ha) was 100, the “phytotoxicity rating IPOHE” value ([12]; 63 g ai/ha) was 0 and the “phytotoxicity rating IPOHE” value ([12]; 250 g ai/ha) was 30. For the same compound, the “phytotoxicity rating ABUTH” value ([13]; 63 g ai/ha) was 70, the “phytotoxicity rating ABUTH” value ([13]; 250 g ai/ha) was 100 and the “phytotoxicity rating ECHCG” value ([14]; 63 g ai/ha) was 20. The “phytotoxicity rating ECHCG” value ([14]; 250 g ai/ha) was 75, the “phytotoxicity rating SORHA” value ([15]; 63 g ai/ha) was 10 and the “phytotoxicity rating SORHA” value ([15]; 250 g ai/ha) was 70. The “phytotoxicity rating SETVI” value ([16]; 63 g ai/ha) was 40, the “phytotoxicity rating SETVI” value ([16]; 250 g ai/ha) was 90 and the “phytotoxicity rating CASOB” value ([17]; 63 g ai/ha) was 0. For the same compound, the “phytotoxicity rating CASOB” value ([17]; 250 g ai/ha) was 20, the “phytotoxicity rating CORN (crop damage)” value ([18]; 63 g ai/ha) was 0 and the “phytotoxicity rating CORN (crop damage)” value ([18]; 250 g ai/ha) was 0. For the same compound, the “phytotoxicity rating RICE (crop damage)” value ([19]; 63 g ai/ha) was 20, the “phytotoxicity rating RICE (crop damage)” value ([19]; 250 g ai/ha) was 45 and the “phytotoxicity rating AMARE” value ([20]; 63 g ai/ha) was 99. For the same compound, the “phytotoxicity rating AMARE” value ([20]; 250 g ai/ha) was 100.
